According to ChEMBL document CHEMBL3098059, “Identification by in silico and in vitro screenings of small organic molecules acting as reversible inhibitors of kallikreins” (Eur J Med Chem, 2013):
Activity calls are given as the source filed them. No cut-off for these calls is given here.

Key:
[1] = target: Kallikrein-5 (Homo sapiens) (UniProt Q9Y337); test: Reversible inhibition of human kallikrein5 using Boc-Val-Pro-Arg-AMC as substrate after 15 to 60 mins by fluorescence assay
[2] = Cytotoxicity against human keratinocytes assessed as cell viability at 1 uM after 24 to 48 hrs by neutral red assay; format: cell-based; conditions: keratinocyte
Kallikrein-7 [3] = target: T1, Kallikrein-7 (Homo sapiens, UniProt P49862); test: Mixed-type inhibition of human kallikrein7 using Suc-Leu-Leu-Val-Tyr-AMC as substrate assessed as enzyme-substrate-inhibitor complex after 15 to 60 mins by Lineweaver-Burk/Eadie-Hofstee plot analysis
Target sequence in this assay (P49862 whole entry): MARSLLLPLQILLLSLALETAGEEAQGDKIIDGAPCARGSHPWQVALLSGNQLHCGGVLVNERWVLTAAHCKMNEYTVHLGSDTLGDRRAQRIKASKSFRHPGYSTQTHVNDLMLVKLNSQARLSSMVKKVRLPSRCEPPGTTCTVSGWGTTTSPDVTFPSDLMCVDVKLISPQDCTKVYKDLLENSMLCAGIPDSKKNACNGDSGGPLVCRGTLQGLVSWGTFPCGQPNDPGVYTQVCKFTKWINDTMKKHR

[4] = Cytotoxicity against human keratinocytes assessed as cell viability at 10 uM after 24 to 48 hrs by neutral red assay; format: cell-based, Keratinocyte; conditions: keratinocyte, 10 µM
Kallikrein-7 [5] = target: T1, Kallikrein-7; test: Reversible inhibition of human kallikrein7 using Suc-Leu-Leu-Val-Tyr-AMC as substrate after 15 to 60 mins by fluorescence assay
Target sequence in this assay (P49862 30-253 limits assumed): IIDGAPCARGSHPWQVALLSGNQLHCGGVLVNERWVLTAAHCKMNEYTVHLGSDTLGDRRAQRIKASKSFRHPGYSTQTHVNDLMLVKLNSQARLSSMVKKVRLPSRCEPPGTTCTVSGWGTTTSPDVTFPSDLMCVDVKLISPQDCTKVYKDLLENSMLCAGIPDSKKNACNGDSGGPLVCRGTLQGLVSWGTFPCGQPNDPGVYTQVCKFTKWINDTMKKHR

[6] = target: Kallikrein-5 (Homo sapiens) (UniProt Q9Y337); test: Inhibition of human kallikrein5 using Boc-Val-Pro-Arg-AMC as substrate at 50 uM after 15 mins by fluorescence assay
Kallikrein-7 [7] = target: T1, Kallikrein-7; test: Inhibition of human kallikrein7 using Suc-Leu-Leu-Val-Tyr-AMC as substrate after 15 mins by fluorescence assay
Target sequence in this assay (P49862 whole entry): as the sequence (P49862 whole entry) above

[8] = Cytotoxicity against human keratinocytes assessed as cell viability at 100 uM after 24 to 48 hrs by neutral red assay; format: cell-based; conditions: keratinocyte
[9] = target: T2, Kallikrein-14 (Homo sapiens) (UniProt Q9P0G3); test: Reversible inhibition of human kallikrein14 using Boc-Val-Pro-Arg-AMC as substrate after 15 to 60 mins by fluorescence assay
T2 sequence (whole entry): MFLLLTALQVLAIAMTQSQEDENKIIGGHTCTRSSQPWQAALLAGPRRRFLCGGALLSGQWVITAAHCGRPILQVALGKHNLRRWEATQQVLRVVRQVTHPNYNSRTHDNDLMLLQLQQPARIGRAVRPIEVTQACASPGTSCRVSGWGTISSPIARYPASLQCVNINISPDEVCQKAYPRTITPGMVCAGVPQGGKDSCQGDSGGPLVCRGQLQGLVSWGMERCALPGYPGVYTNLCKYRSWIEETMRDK

[10] = target: T3, Suppressor of tumorigenicity 14 protein (Homo sapiens) (UniProt Q9Y5Y6); test: Inhibition of matriptase (unknown origin) using Boc-Gln-Ala-Arg-AMC as substrate at 50 uM after 15 mins by fluorescence assay
T3 sequence (whole entry): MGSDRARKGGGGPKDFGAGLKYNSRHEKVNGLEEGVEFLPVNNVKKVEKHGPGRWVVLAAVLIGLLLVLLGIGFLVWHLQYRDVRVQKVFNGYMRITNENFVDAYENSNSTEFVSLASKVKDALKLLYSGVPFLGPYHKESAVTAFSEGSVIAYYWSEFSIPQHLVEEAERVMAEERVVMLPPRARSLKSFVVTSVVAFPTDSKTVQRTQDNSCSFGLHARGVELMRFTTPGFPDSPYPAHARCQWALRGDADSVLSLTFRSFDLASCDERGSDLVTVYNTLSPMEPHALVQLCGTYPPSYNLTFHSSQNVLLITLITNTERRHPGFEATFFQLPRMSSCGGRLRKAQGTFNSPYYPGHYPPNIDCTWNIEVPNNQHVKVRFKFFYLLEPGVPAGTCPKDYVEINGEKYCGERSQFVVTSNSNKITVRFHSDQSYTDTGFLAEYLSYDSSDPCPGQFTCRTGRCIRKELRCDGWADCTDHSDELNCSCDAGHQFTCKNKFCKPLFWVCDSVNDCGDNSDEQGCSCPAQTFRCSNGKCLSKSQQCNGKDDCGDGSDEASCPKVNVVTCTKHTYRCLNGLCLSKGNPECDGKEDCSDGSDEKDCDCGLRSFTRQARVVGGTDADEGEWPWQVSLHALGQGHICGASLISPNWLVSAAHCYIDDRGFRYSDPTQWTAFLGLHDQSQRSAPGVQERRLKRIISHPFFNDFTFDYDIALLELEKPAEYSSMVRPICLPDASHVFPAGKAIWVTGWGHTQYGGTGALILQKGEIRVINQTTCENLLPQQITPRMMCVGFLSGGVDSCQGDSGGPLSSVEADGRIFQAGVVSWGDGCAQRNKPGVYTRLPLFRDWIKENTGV

Kallikrein-7 [11] = target: T1, Kallikrein-7; test: Mixed-type inhibition of human kallikrein7 using Suc-Leu-Leu-Val-Tyr-AMC as substrate assessed as enzyme-inhibitor complex after 15 to 60 mins by Lineweaver-Burk/Eadie-Hofstee plot analysis
Target sequence in this assay (P49862 whole entry): as the sequence (P49862 whole entry) above

[12] = target: Kallikrein-5 (Homo sapiens) (UniProt Q9Y337); test: Competitive inhibition of human kallikrein5 using Boc-Val-Pro-Arg-AMC as substrate at 50 uM after 15 to 60 mins by Lineweaver-Burk/Eadie-Hofstee plot analysis
Kallikrein-7 [13] = target: T1, Kallikrein-7; test: Ratio of Ki for mixed-type inhibition of human kallikrein7 assessed as enzyme-substrate-inhibitor complex to Ki for mixed-type inhibition of human kallikrein7 assessed as enzyme-inhibitor complex
Target sequence in this assay (P49862 30-253 limits assumed): as the sequence (P49862 30-253 limits assumed) above

[14] = target: T3, Suppressor of tumorigenicity 14 protein (Homo sapiens); test: Reversible inhibition of matriptase (unknown origin) using Boc-Gln-Ala-Arg-AMC as substrate after 15 to 60 mins by fluorescence assay
[15] = target: T2, Kallikrein-14 (Homo sapiens); test: Inhibition of human kallikrein14 using Boc-Val-Pro-Arg-AMC as substrate at 50 uM after 15 mins by fluorescence assay

Sequence of Kallikrein-5 (Homo sapiens) (Q9Y337 whole entry): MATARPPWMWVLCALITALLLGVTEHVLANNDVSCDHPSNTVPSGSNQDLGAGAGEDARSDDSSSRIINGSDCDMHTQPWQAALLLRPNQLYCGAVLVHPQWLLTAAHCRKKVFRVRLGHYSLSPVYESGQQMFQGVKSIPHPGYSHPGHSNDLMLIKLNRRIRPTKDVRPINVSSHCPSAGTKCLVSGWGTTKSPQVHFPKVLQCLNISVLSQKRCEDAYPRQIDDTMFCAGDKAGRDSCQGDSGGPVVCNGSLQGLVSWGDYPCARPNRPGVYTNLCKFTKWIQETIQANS

Q: With `Nc1ccc2[nH]c(SCc3nc4ccccc4c(=O)n3-c3cccc(C(F)(F)F)c3)nc2c1` as the compound, how does the inhibition [1] read?
A: Active

Q: And the Activity [2]?
A: Non-toxic

Q: What about the Ki (Kallikrein-7 [3]) of the same compound?
A: 44 µM

Q: And the Activity [4]?
A: Non-toxic

Q: What about the inhibition (Kallikrein-7 [5]) of the same compound?
A: Active

Q: And the inhibition [6]?
A: < 30%

Q: And the IC50 (Kallikrein-7 [7])?
A: 25 µM

Q: What about the Activity [8] of the same compound?
A: Non-toxic

Q: What about the inhibition [9] of the same compound?
A: Active

Q: And the inhibition [10]?
A: < 30%

Q: What about the Ki (Kallikrein-7 [11]) of the same compound?
A: 15 µM

Q: What about the inhibition [12] of the same compound?
A: < 30%

Q: What about the Ratio Ki (Kallikrein-7 [13]) of the same compound?
A: 2

Q: And the inhibition [14]?
A: Active

Q: What about the inhibition [15] of the same compound?
A: < 30%
